# Experiments:
# Assay in all cases: Test B pre-/postemergence plant response
# Format in all cases: in vivo
# [1] = test system: Italian ryegrass (Lolium multiflorum)
# Outline: (§1)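 Seeds were sown and sprayed preemergence, while plants at 2 to 18 cm (1- to 4-leaf stage) got postemergence sprays. Compounds were formulated in a non-phytotoxic solvent mixture with surfactant. After 13 to 15 days in a greenhouse, injury was rated visually against untreated controls, 0 (no effect) to 100 (complete control).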
# [2] = test system: Russian thistle (Salsola iberica); conditions: Preemergence; for Russian Thistle plant response rating: scale 0 to 100
# Outline: as §1
# [3] = test system: blackgrass (Alopecurus myosuroides); conditions: for Blackgrass plant response rating: 8 g ai/ha
# Outline: as §1
# [4] = test system: catchweed bedstraw (Galium aparine); conditions: Preemergence
# Outline: as §1
# [5] = test system: common ragweed (Ambrosia elation)
# Outline: as §1
# [6] = test system: eastern black (E.B.) nightshade (Solanum ptycanthum); conditions: Preemergence
# Outline: as §1
# [7] = test system: giant foxtail (Setaria faberii)
# Outline: as §1
# [8] = test system: goosegrass (Eleusine indica)
# Outline: as §1
# [9] = test system: johnsongrass (Sorghum halepense)
# Outline: as §1
# kochia (Kochia scoparia) = conditions: for Kochia plant response rating: postemergence, 0-100 scale
# Outline: as §1
# [10] = test system: lambsquarters (Chenopodium album)
# Outline: as §1
# [11] = test system: pigweed (Amaranthus retroflexus)
# Outline: as §1
# soybean (Glycine max) = conditions: Preemergence; for Soybean plant response rating: scale 0 to 100
# Outline: as §1
# [12] = test system: woolly cupgrass (Eriochloa villosa)
# Outline: as §1
# [13] = 8 g ai/ha, postemergence, 0-100 scale
# [14] = 16 g ai/ha, postemergence, 0-100 scale
# [15] = Postemergence, 31 g ai/ha, scale 0 to 100
# [16] = Postemergence, 62 g ai/ha, scale 0 to 100, 0 no effect, 100 complete control
# [17] = Preemergence, 31 g ai/ha, scale 0 to 100 (0 no effect, 100 complete control)
# [18] = Preemergence, 62 g ai/ha, 0 to 100 scale, 0 no effect, 100 complete control
# [19] = Preemergence, 8 g ai/ha, scale 0 to 100
# [20] = Preemergence, 16 g ai/ha, scale 0 to 100
# [21] = 31 g ai/ha, scale 0 to 100 (0 no effect, 100 complete control)
# [22] = 62 g ai/ha, 0 to 100 scale, 0 no effect, 100 complete control
# [23] = Postemergence, 16 g ai/ha, scale 0 to 100
smiles,measurement,setting,value
CCc1cc(-c2ccc(Br)cc2)nn1-c1c(O)cnn(C)c1=O [Compound 61],"Ryegrass, Italian plant response rating",[1]; [13],100
same,"Ryegrass, Italian plant response rating",[1]; [14],100
same,"Plant response rating, Ryegrass, Italian",[1]; [15],100
same,"Plant response rating, Ryegrass, Italian",[1]; [16],100
same,"Plant response rating, Ryegrass, Italian",[1]; [17],100
same,"Plant response rating, Ryegrass, Italian",[1]; [18],100
same,"Ryegrass, Italian plant response rating",[1]; [19],85
same,"Ryegrass, Italian plant response rating",[1]; [20],100
same,"Plant response rating, Russian Thistle",[2]; [21],0
same,"Plant response rating, Russian Thistle",[2]; [22],0
same,Russian Thistle plant response rating,[2]; 8 g ai/ha,0
same,Russian Thistle plant response rating,[2]; 16 g ai/ha,0
same,Blackgrass plant response rating,"[3]; postemergence, 0-100 scale",85
same,"Plant response rating, Blackgrass",[3]; [23],100
same,"Plant response rating, Blackgrass",[3]; [15],100
same,"Plant response rating, Blackgrass",[3]; [16],100
same,"Plant response rating, Blackgrass","[3]; Preemergence, 16 g ai/ha, scale 0 to 100 (0 no effect, 100 complete control)",100
same,"Plant response rating, Blackgrass",[3]; [17],100
same,"Plant response rating, Blackgrass",[3]; [18],100
same,Blackgrass plant response rating,"[3]; Preemergence, scale 0 to 100",40
same,"Plant response rating, Galium",[4]; [21],0
same,"Plant response rating, Galium",[4]; [22],0
same,Galium plant response rating,"[4]; 8 g ai/ha, scale 0 to 100",0
same,Ragweed plant response rating,[5]; [13],0
same,Ragweed plant response rating,[5]; [14],0
same,"Plant response rating, Ragweed",[5]; [15],0
same,"Plant response rating, Ragweed",[5]; [16],0
same,"Plant response rating, Ragweed",[5]; [17],0
same,"Plant response rating, Ragweed",[5]; [18],0
same,Ragweed plant response rating,[5]; [19],0
same,Ragweed plant response rating,[5]; [20],0
same,"Plant response rating, Nightshade, E. B.",[6]; [21],0
same,"Plant response rating, Nightshade, E. B.",[6]; [22],0
same,"Nightshade, E. B. plant response rating","[6]; 16 g ai/ha, scale 0 to 100",0
same,"Foxtail, Giant plant response rating",[7]; [13],98
same,"Plant response rating, Foxtail, Giant",[7]; [23],100
same,"Plant response rating, Foxtail, Giant",[7]; [15],100
same,"Plant response rating, Foxtail, Giant",[7]; [16],100
same,"Plant response rating, Foxtail, Giant",[7]; [17],100
same,"Plant response rating, Foxtail, Giant",[7]; [18],100
same,"Foxtail, Giant plant response rating",[7]; [19],75
same,"Foxtail, Giant plant response rating",[7]; [20],100
same,Goosegrass plant response rating,[8]; [13],98
same,Goosegrass plant response rating,[8]; [14],100
same,"Plant response rating, Goosegrass",[8]; [15],100
same,"Plant response rating, Goosegrass",[8]; [16],100
same,"Plant response rating, Goosegrass",[8]; [17],100
same,"Plant response rating, Goosegrass",[8]; [18],100
same,Goosegrass plant response rating,[8]; [19],80
same,Goosegrass plant response rating,[8]; [20],100
same,Johnsongrass plant response rating,[9]; [13],65
same,Johnsongrass plant response rating,[9]; [14],100
same,"Plant response rating, Johnsongrass",[9]; [15],100
same,"Plant response rating, Johnsongrass",[9]; [16],100
same,"Plant response rating, Johnsongrass",[9]; [17],100
same,"Plant response rating, Johnsongrass",[9]; [18],100
same,Johnsongrass plant response rating,[9]; [19],90
same,Johnsongrass plant response rating,[9]; [20],95
same,Kochia plant response rating,kochia (Kochia scoparia); 8 g ai/ha,0
same,Kochia plant response rating,kochia (Kochia scoparia); 16 g ai/ha,0
same,"Plant response rating, Kochia",kochia (Kochia scoparia); [15],35
same,"Plant response rating, Kochia",kochia (Kochia scoparia); [16],45
same,"Plant response rating, Kochia",kochia (Kochia scoparia); [17],0
same,"Plant response rating, Kochia",kochia (Kochia scoparia); [18],0
same,Lambsquarters plant response rating,[10]; [13],0
same,Lambsquarters plant response rating,[10]; [14],0
same,"Plant response rating, Lambsquarters",[10]; [15],0
same,"Plant response rating, Lambsquarters",[10]; [16],0
same,"Plant response rating, Lambsquarters",[10]; [17],0
same,"Plant response rating, Lambsquarters",[10]; [18],0
same,Lambsquarters plant response rating,[10]; [19],0
same,Lambsquarters plant response rating,[10]; [20],0
same,Pigweed plant response rating,[11]; [13],0
same,Pigweed plant response rating,[11]; [14],0
same,"Plant response rating, Pigweed",[11]; [15],0
same,"Plant response rating, Pigweed",[11]; [16],0
same,"Plant response rating, Pigweed",[11]; [17],0
same,"Plant response rating, Pigweed",[11]; [18],0
same,Pigweed plant response rating,[11]; [19],0
same,Pigweed plant response rating,[11]; [20],0
same,"Plant response rating, Soybean",soybean (Glycine max); [21],0
same,"Plant response rating, Soybean",soybean (Glycine max); [22],0
same,Soybean plant response rating,soybean (Glycine max); 8 g ai/ha,0
same,Soybean plant response rating,soybean (Glycine max); 16 g ai/ha,0
same,"Cupgrass, Woolly plant response rating",[12]; [13],98
same,"Plant response rating, Cupgrass, Woolly",[12]; [23],100
same,"Plant response rating, Cupgrass, Woolly",[12]; [15],100
same,"Plant response rating, Cupgrass, Woolly",[12]; [16],100
same,"Plant response rating, Cupgrass, Woolly",[12]; [17],100
same,"Plant response rating, Cupgrass, Woolly",[12]; [18],100
same,"Cupgrass, Woolly plant response rating",[12]; [19],80
same,"Cupgrass, Woolly plant response rating",[12]; [20],98

# — patent US20100267561A1, “HERBICIDAL PYRIDAZINONE DERIVATIVES” (priority 2007, published 2010)
